Data taken from patent US4797415A, “Benzofuran derivatives and use thereof for treating hyperuricemia” (Kotobuki Seiyaku Company Limited, priority 1982, dated 1989).
Read-outs that look alike come from different tables or passages of the source.

Assays:
phenol red retention = assay: Uricosuric activity by phenol red method in rats; assay type: in vivo; conditions: p.o. 100 mg/kg
Procedure: (§1) Blood samples were collected from the retro-orbital plexus into heparinized capillary tubes 60 minutes after the phenol red injection. The retention of phenol red in circulation was determined according to the method described in J. Med. Pharmaceu.
The same test of uricosuric activity was applied to rats.

[1] = system: phenol red retention in circulation; assay: Uricosuric activity by phenol red retention test in mice; assay type: in vivo, male mice; conditions: Mus musculus, 1 h
Procedure: as §1
Benzobromarone was administered subcutaneously to mice in an amount of 200 mg./kg. as a control or standard.

in vivo = conditions: mouse, po, p.o. in mice
Description: In general, the compounds related to this invention have a potent uriosuric activiity and some of them are considered promising for clinical use. The toxicity of these compounds is much lower than that of the typical uricosuric agent: benzbromarone.

[2] = po, mice, p.o. 200 mg/kg, 30 min before 75 mg/kg phenol red, blood 60 min after phenol red, read-out: phenol red retention, percentage by comparison with the control group, P.O. (200 mg/kg)
[3] = sc, mice, s.c. 200 mg/kg, 30 min before 75 mg/kg phenol red, blood 60 min after phenol red, read-out: phenol red retention, percentage by comparison with the control group, S.C. (200 mg/kg)

| Structure (SMILES) | Phenol Red Retention % in Rats 100 mg/kg (p.o.) (phenol red retention) | response vs control in vivo at 200 mg/kg [1, 2] | response vs control in vivo at 200 mg/kg [1, 3] | LD50 (in vivo) | response vs control in vivo at 200 mg/kg ([1]; sc, read-out: phenol red retention, percentage by comparison with the control group, S.C. (200 mg/kg)) |
| --- | --- | --- | --- | --- | --- |
| CCc1oc2ccccc2c1C(=O)c1ccc(OCC(=O)O)c(C)c1 [Compound 25, 2-methyl-4-(2-ethyl-3-benzofuroyl)phenoxyacetic acid] | 208.1 ± 27.0% | 200 ± 25% | 189 ± 27.8% | – | – |
| CCc1oc2ccccc2c1C(=O)c1ccc(OCC(=O)O)c(Cl)c1 [Compound 22, 2-chloro-4-(2-ethyl-3-benzofuroyl)phenoxyacetic acid] | 217.2 ± 17.2% | 190 ± 26.3% | 211 ± 33.3% | – | – |
| CCc1oc2ccccc2c1C(=O)c1cc(Br)c(O)c(Br)c1 [Benzbromarone, benzbromarone, reference compound] | 163.9 ± 25.0% | – | – | 361 mg/kg | 184% |
| CCc1oc2ccccc2c1C(=O)c1ccc(OCC(=O)O)cc1 [Compound 3, 4-(2-ethyl-3-benzofuroyl)phenoxyacetic acid] | 194.6 ± 29.7% | 175 ± 15.5% | 169 ± 18.1% | 2110 mg/kg | – |
| CCc1oc2ccccc2c1C(=O)c1cc(C)c(OCC(=O)O)cc1C [Compound 39] | 175.7 ± 21.6% | 410 ± 28.6% | – | – | – |
| CCOC(=O)COc1ccc(C(=O)c2c(CC)oc3ccccc23)cc1Cl [Compound 20, Ethyl 2-chloro-4-(2-ethyl-3-benzofuroyl)phenoxyacetate] | – | – | 128 ± 16.7% | – | – |
| CCc1oc2ccccc2c1C(=O)c1cc(C)c(OCC(=O)OC)cc1C [Compound 37, Methyl 2,5-dimethyl-4-(2-ethyl-3-benzofuroyl)phenoxyacetate] | – | 254 ± 15.6% | – | – | – |
| CCc1oc2ccccc2c1C(=O)c1ccc(OCC(=O)O)c(C)c1C [Compound 35, 2,3-dimethyl-4-(2-ethyl-3-benzofuroyl)phenoxyacetic acid] | 269.0 ± 31.0% | 319 ± 14.3% | – | – | – |
| CCc1oc2ccccc2c1C(=O)c1ccc(OCc2nnn[nH]2)c(Cl)c1 [Compound 44, 5-[2-chloro-4-(2-ethyl-3-benzofuroyl)phenoxymethyl]tetrazole] | – | 175 ± 17.9% | – | – | – |
| CCOC(=O)COc1cc(C)c(C(=O)c2c(CC)oc3ccccc23)cc1C [Compound 38, Ethyl 2,5-dimethyl-4-(2-ethyl-3-benzofuroyl)phenoxyacetate] | – | 324 ± 19% | – | – | – |
| CCCCOC(=O)COc1ccc(C(OCCCC)c2c(CC)oc3ccccc23)cc1 (stereo not drawn) [Compound 15, Butyl 4-(2-ethyl-3-butoxymethylbenzofuranyl)phenoxyacetate] | – | 175 ± 35% | 165 ± 34.6% | – | – |
| CCc1oc2ccccc2c1C(=O)c1ccc(O)c(C)c1C [Compound 32, 2-ethyl-3-(2,3-dimethyl-4-hydroxybenzoyl)benzofuran] | – | 112 ± 18.8% | – | – | – |
| CCc1oc2ccccc2c1C(=O)c1cccc(OCC(=O)O)c1 [Compound 2, 3-(2-ethyl-3-benzofuroyl)phenoxyacetic acid] | – | – | 180 ± 15.4% | – | – |
| CCc1oc2ccccc2c1C(=O)c1ccc(OCC(=O)NO)cc1 [Compound 8, 4-(2-ethyl-3-benzofuroyl)phenoxyacetohydroxamide] | – | 129 ± 17.6% | 167 ± 26.6% | – | – |
